Data on three compounds can be found in paper PMC11469747 (Clinical and Translational Science, 2024).

The target of series [1] is T1, CYP2C8 (Homo sapiens, UniProt P10632).
T1 sequence (P10632 1-490): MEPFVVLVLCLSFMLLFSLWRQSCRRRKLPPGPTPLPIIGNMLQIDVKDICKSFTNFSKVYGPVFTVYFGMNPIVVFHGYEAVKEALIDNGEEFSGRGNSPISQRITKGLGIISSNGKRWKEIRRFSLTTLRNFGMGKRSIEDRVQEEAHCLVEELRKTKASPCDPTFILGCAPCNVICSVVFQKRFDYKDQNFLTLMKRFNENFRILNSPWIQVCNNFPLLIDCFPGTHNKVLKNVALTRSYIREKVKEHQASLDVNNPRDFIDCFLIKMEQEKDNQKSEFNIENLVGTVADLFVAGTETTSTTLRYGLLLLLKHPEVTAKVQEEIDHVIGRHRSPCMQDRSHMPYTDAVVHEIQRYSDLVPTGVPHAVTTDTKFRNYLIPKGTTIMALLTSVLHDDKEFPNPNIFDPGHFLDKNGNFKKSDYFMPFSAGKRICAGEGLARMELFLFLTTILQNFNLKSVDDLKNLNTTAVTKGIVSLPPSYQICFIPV
Put plainly: Phase I enzyme determination in HLM with CYP-specific inhibitor quercetin. The conditions noted are these: quercetin 10 μM.

The target in the next series is CYP2C9 (Homo sapiens, UniProt P11712). Put plainly: Inhibitory DDI evaluation, cocktail incubation in HLM. It counts as in vitro ADME.
Series [2] can be described thus: Metabolic stability study in HLM. Format: in vitro ADME, human. To be noted: for stability in the negative control assay: without HLM, NADPH regenerating system and UDPGA, up to 120 min, 37°C.
Series [3] deals with CYP1A2, CYP2B6, CYP2C8, CYP2C9, CYP2D6, CYP2E1, CYP3A4/5. Nature of the series: Inhibitory DDI evaluation, cocktail incubation in HLM, all probe reactions. The conditions noted are these: human, pooled human liver microsomes. It counts as in vitro ADME.
In a further series the target is CYP2D6 (Homo sapiens, UniProt P10635). Put plainly: Inhibitory DDI evaluation, cocktail incubation in HLM. Format: in vitro ADME.
The next series addresses T2, CYP1A2 (Homo sapiens, UniProt P05177).
T2 sequence (P05177 1-516): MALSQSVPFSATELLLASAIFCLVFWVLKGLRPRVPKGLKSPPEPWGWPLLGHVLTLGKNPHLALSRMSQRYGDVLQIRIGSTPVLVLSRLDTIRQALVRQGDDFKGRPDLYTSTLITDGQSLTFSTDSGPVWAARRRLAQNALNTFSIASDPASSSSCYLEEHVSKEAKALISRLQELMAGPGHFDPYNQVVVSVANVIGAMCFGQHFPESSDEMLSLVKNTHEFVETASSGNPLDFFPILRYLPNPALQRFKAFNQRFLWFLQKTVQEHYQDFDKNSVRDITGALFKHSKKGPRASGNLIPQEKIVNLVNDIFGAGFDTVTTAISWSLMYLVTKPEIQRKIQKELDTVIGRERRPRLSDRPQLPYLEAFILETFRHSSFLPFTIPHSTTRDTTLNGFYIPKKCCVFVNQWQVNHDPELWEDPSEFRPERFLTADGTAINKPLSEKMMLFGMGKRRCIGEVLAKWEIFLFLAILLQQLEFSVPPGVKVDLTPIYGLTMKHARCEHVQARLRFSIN
The series is described as above. It counts as in vitro ADME.

Series [4] deals with T1, CYP2C8. The series is described as above. It counts as in vitro ADME.
In a further series the target is CYP2E1 (Homo sapiens, UniProt P05181). Described as above. Format: in vitro ADME.
The conditions of series [5]: cited from earlier work.
In a further series the test system is CYP3A4/5. Nature of the series: Phase I enzyme determination in HLM with CYP-specific inhibitor ketoconazole. Format: in vitro ADME, human. To be noted: HLM with six CYP-specific inhibitors.
Another series concerns the target T3, CYP2B6 (Homo sapiens, UniProt P20813).
T3 sequence (P20813 1-491): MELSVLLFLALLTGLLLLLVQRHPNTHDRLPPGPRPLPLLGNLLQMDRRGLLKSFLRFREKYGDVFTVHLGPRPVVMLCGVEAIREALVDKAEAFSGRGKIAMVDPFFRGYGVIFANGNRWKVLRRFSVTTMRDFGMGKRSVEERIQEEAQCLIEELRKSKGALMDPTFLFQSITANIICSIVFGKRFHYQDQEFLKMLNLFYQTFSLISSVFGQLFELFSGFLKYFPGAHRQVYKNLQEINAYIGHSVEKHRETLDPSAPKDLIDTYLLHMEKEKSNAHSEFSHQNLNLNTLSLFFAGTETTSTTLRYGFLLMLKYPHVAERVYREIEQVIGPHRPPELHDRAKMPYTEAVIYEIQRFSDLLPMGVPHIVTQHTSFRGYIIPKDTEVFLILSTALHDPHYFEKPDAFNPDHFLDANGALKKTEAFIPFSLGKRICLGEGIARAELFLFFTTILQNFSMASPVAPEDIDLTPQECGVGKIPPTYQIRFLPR
Put plainly: Inhibitory DDI evaluation, cocktail incubation in HLM. Format: in vitro ADME.

The test system of the next series is recombinant human UGT1A9. Nature of the series: Phase II enzyme determination with recombinant human UGT. Format: in vitro ADME. The conditions noted are these: rotundic acid 2.5 μM, UGT1A9 0.25 mg protein/mL, 20 min.
Another series concerns recombinant human UGT1A6. The description is as above. It counts as in vitro ADME. The conditions noted are these: rotundic acid 2.5 μM, UGT1A6 0.25 mg protein/mL, 20 min.
The test system of a further series is recombinant human UGT1A4. Described as above. Format: in vitro ADME. To be noted: rotundic acid 2.5 μM, UGT1A4 0.25 mg protein/mL, 20 min.
The subject of the next series is recombinant human UGT1A1. The description is as above. The conditions noted are these: rotundic acid 2.5 μM, UGT1A1 0.25 mg protein/mL, 20 min. Format: in vitro ADME.
In a further series the test system is recombinant human UGT2B7. The description is as above. It counts as in vitro ADME. The conditions noted are these: rotundic acid 2.5 μM, UGT2B7 0.25 mg protein/mL, 20 min.

Sequence of CYP2E1 (P05181 whole entry): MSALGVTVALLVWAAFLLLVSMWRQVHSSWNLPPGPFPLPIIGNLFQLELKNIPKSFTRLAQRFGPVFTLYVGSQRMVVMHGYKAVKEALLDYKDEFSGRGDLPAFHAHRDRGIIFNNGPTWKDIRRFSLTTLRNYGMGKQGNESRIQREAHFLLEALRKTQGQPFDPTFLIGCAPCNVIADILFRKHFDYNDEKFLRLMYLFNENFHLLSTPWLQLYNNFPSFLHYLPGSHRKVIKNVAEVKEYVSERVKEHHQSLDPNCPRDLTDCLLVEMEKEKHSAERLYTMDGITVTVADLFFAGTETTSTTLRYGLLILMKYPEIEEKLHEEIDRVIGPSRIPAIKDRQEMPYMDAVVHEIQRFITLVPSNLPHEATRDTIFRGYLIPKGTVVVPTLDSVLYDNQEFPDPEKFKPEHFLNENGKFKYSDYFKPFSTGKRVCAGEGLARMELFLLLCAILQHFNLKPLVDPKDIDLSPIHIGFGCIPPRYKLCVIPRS
Sequence of CYP2C9 (P11712 whole entry): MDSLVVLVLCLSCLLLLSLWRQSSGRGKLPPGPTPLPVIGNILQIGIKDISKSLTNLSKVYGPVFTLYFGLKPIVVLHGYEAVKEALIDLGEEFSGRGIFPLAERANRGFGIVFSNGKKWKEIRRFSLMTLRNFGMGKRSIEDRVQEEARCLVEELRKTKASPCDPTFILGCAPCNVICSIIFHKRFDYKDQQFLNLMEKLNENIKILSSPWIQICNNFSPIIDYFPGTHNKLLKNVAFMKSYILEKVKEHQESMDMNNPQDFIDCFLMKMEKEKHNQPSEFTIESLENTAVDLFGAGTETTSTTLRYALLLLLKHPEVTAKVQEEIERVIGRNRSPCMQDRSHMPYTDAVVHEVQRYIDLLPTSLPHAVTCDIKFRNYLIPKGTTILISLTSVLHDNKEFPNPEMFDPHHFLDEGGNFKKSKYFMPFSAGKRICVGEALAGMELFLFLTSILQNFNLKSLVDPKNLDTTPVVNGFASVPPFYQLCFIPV
Sequence of CYP2D6 (P10635 whole entry): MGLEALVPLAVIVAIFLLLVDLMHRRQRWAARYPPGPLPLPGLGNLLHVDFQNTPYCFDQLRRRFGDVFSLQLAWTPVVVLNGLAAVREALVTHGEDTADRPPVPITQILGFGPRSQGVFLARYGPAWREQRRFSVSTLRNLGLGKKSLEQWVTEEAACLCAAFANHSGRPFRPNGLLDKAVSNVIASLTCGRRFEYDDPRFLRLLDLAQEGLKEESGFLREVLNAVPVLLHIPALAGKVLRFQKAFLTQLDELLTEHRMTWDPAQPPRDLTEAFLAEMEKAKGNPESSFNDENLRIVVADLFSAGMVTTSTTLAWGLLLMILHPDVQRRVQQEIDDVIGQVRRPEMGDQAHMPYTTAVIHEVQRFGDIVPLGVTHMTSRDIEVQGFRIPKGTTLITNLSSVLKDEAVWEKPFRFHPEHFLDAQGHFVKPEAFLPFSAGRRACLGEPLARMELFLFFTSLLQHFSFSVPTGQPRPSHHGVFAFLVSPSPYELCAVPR

Turning to `O=c1c(O)c(-c2ccc(O)c(O)c2)oc2cc(O)cc(O)c12` [quercetin], on CYP2C8 [1], the “generation rate of PE + O (1)” value is given as “approximately 45%” and the “generation rate of PE + O (2)” value was “approximately 60%”.
Broadly, the IC50 is the concentration needed to halve the response being measured. Read a low IC50 as greater potency. One may read the Cmax as the highest concentration seen after dosing. For `C[C@@H]1CC[C@]2(C(=O)O[C@@H]3O[C@H](CO)[C@@H](O)[C@H](O)[C@H]3O)CC[C@]3(C)C(=CC[C@@H]4[C@@]5(C)CC[C@H](O)[C@@](C)(CO)[C@@H]5CC[C@]43C)[C@@H]2[C@]1(C)O` [pedunculoside], the IC50 at CYP2C9, against CYP2D6, at CYP1A2, against CYP2C8 [4], on CYP2E1 and on CYP2B6 was > 50 µM each time. In series [2], the “stability in the negative control assay” value is “stable”. Also, in series [3], the IC50 at 20 min was > 50 µM. Further, the Cmax in [5] (plasma, after oral administration, converted from ng/mL) was 0.154 to 0.768 µM. In series [5] (rats, oral or intravenous), the elimination half-life entry was “short”. Besides, in the series with CYP3A4/5, the enzymes catalyzing hydroxylation result was “mainly catalyzed by CYP3A4/5 and partly by CYP2C8”.
As for `C[C@@H]1CC[C@]2(C(=O)O)CC[C@]3(C)C(=CC[C@@H]4[C@@]5(C)CC[C@H](O)[C@@](C)(CO)[C@@H]5CC[C@]43C)[C@@H]2[C@]1(C)O` [rotundic acid], the “generation of glucuronidated rotundic acid” value was “not detected” with recombinant human UGT1A9; “not detected” in the series on recombinant human UGT1A6; “detected” in the series on recombinant human UGT1A4; “not detected” in the series with recombinant human UGT1A1; “not detected” in the series on recombinant human UGT2B7. The IC50 on CYP2C9, against CYP2D6, against CYP1A2, at CYP2C8 [4], against CYP2E1 and on CYP2B6 was > 50 µM each time. For the same compound, in series [2], the “stability in the negative control assay” value is given as “stable”. In addition, the “metabolized after incubation for 120 min” value in series [2] (~1 μM, HLM, UDPGA absent (UDPGA-)) is recorded as ~ 50%. The “compound remaining after 120 min” value in [2] (~1 μM, HLM, absence of the NADPH regeneration system (NADPH-)) was “approximately 25%”. Further, the “rotundic acid remained after 120 min” value in [2] (~1 μM, HLM, normal group, under regular conditions) is on record as “less than 10%”. Further, the IC50 at 20 min in series [3] was > 50 µM. Also, the enzymes catalyzing hydroxylation result in the series with CYP3A4/5 is given as “almost exclusively catalyzed by CYP3A4/5”.
